Data as given in patent US9956181B2, “Composition of nanoformulated lycopene and method of using the composition” (priority 2015, dated 2018).

Experiments:
[1] = OVX rat study: serum and liver lycopene by HPLC; format: in vivo, Wistar rats
Procedure: A total of 264 Wistar female rats, ˜6 months old, were supplied by the Animal House at King Fahd Medical Research Center (KFMRC), KAU. Rats were housed in individual cages and maintained at 22° C. with a 12-h light/dark cycle. During the study period, rats were given standard rodent chow diet ad libitum (commercial rat cubes containing approximately 18% protein, 3% fat, 77% carbohydrate, and 2% of an inorganic-salt mixture with a vitamin supplement by weight, supplied by Grain Silos and Flour Mills Organization, Jeddah, Saudi Arabia) and water until the onset of intervention. Prior to surgery, rats were anesthetized with ketamine [(10% ketamine hydrochloride (80 mg/kg body weight), Cayman Chemical, Michigan, USA] and xylazine [(2% xylazine hydrochloride, 10 mg/kg body weight), Sigma-Aldrich Co., St. Louis, USA]. A single longitudinal skin incision was made on the dorsal midline at the level of the kidneys and both ovaries were ligated and removed to produce an ovariectomy in all OVX group animals. A SHAM-operated group, acting as a negative control for the effect of ovariectomy on bone parameters, underwent bilateral laparotomy, during which the ovaries were exposed but remained intact. […] The lycopene-supplemented groups were given lycopene (15, 30 and 45 mg/kg body weight per day) dissolved in corn oil by daily intra-gastric administration for the experimental period of 12 weeks. The SHAM, OVX and ALN control groups were given the same volume of corn oil without lycopene treatment. […] A 12-week randomized placebo-controlled study in order to examine the protective effects of lycopene supplementation on bone mass and fragility in OVX rats was concluded. Prior to surgery, body weight and bone mineral density (BMD) were obtained for all animals. […] Peripheral Quantitative CT (pQCT) scans were made of the proximal tibia metaphysis and the diaphysis. […]

[2] = tested on: ovariectomized (OVX) rats; experiment: OVX rat study: body weight, uterine weight, body composition by DXA, organ findings; format: in vivo, Wistar rats; details: 12 weeks; for decrease in fat mass (body composition by DXA): higher dosages of lycopene
Procedure: (§1) A total of 264 Wistar female rats, ˜6 months old, were supplied by the Animal House at King Fahd Medical Research Center (KFMRC), KAU. Rats were housed in individual cages and maintained at 22° C. with a 12-h light/dark cycle. During the study period, rats were given standard rodent chow diet ad libitum (commercial rat cubes containing approximately 18% protein, 3% fat, 77% carbohydrate, and 2% of an inorganic-salt mixture with a vitamin supplement by weight, supplied by Grain Silos and Flour Mills Organization, Jeddah, Saudi Arabia) and water until the onset of intervention. Prior to surgery, rats were anesthetized with ketamine [(10% ketamine hydrochloride (80 mg/kg body weight), Cayman Chemical, Michigan, USA] and xylazine [(2% xylazine hydrochloride, 10 mg/kg body weight), Sigma-Aldrich Co., St. Louis, USA]. A single longitudinal skin incision was made on the dorsal midline at the level of the kidneys and both ovaries were ligated and removed to produce an ovariectomy in all OVX group animals. A SHAM-operated group, acting as a negative control for the effect of ovariectomy on bone parameters, underwent bilateral laparotomy, during which the ovaries were exposed but remained intact. […] The lycopene-supplemented groups were given lycopene (15, 30 and 45 mg/kg body weight per day) dissolved in corn oil by daily intra-gastric administration for the experimental period of 12 weeks. The SHAM, OVX and ALN control groups were given the same volume of corn oil without lycopene treatment. […] A 12-week randomized placebo-controlled study in order to examine the protective effects of lycopene supplementation on bone mass and fragility in OVX rats was concluded. Prior to surgery, body weight and bone mineral density (BMD) were obtained for all animals. Rats were randomized using a computer-generated randomization code into one of six groups: (1) sham-operated (SHAM; n=44); (2) ovariectomized control (OVX; n=44); (3) OVX lycopene-supplemented (15 mg/kg body weight per day) (n=44); (4) OVX lycopene-supplemented (30 mg/kg body weight per day) (n=44); (5) OVX lycopene-supplemented (45 mg/kg body weight per day) (n=44) and (6) OVX alendronate-treated (ALN) [2.0 μg/kg body weight per day subcutaneously (sc)] (n=44). Alendronate is an anti-resorptive agent for the treatment of osteoporosis and was used as a positive therapy control. […] All OVX groups were pair-fed with the SHAM group throughout the study to avoid the possible effects of ovariectomy-induced over-consumption and subsequent excessive weight gain. Treatment started 1 week after the surgery: this period of rest allowed the rats to recover from the stress associated with the surgery. In addition, after surgery, rats were administered Diclofenac sodium injection (20 mg/Kg body weight) to reduce the pain associated with the surgery. Rats were weighed and examined daily. Blood and urine samples were collected at baseline, during, and at the end of treatment for measurement of various BTMs and other analytes. In vivo dual energy x-ray absorptiometry (DXA) measurements were made for the bone mineral content (BMC) and BMD of the whole body, lumbar spine (L1-L4), and the right humerus, together with body composition at 12 weeks of treatment. One day following the post-test DXA assessments (at 12 weeks, 16 rats in each group), animals were euthanized by decapitation and right and left femurs were extracted for further biomechanical and histomorphometric analyses. Blood and urine samples were collected from all experimental groups to measure biochemical analytes and BTMs at baseline and 4, 8, and 12 weeks of treatment. Peripheral Quantitative CT (pQCT) scans were made of the proximal tibia metaphysis and the diaphysis. In vivo micro-computed tomographic (μCT) scans of the proximal tibia were obtained during the treatment period to monitor changes in bone mass and microarchitecture. […]

[3] = tested on: ovariectomized (OVX) rats; experiment: OVX rat study: plasma GPx, SOD, CAT activities and urinary 8-OHdG; format: in vivo, Wistar rats
Procedure: Prior to surgery, rats were anesthetized with ketamine [(10% ketamine hydrochloride (80 mg/kg body weight), Cayman Chemical, Michigan, USA] and xylazine [(2% xylazine hydrochloride, 10 mg/kg body weight), Sigma-Aldrich Co., St. Louis, USA]. A single longitudinal skin incision was made on the dorsal midline at the level of the kidneys and both ovaries were ligated and removed to produce an ovariectomy in all OVX group animals. A SHAM-operated group, acting as a negative control for the effect of ovariectomy on bone parameters, underwent bilateral laparotomy, during which the ovaries were exposed but remained intact. […] The lycopene-supplemented groups were given lycopene (15, 30 and 45 mg/kg body weight per day) dissolved in corn oil by daily intra-gastric administration for the experimental period of 12 weeks. The SHAM, OVX and ALN control groups were given the same volume of corn oil without lycopene treatment. […] Prior to surgery, body weight and bone mineral density (BMD) were obtained for all animals. […] Alendronate is an anti-resorptive agent for the treatment of osteoporosis and was used as a positive therapy control. […] All OVX groups were pair-fed with the SHAM group throughout the study to avoid the possible effects of ovariectomy-induced over-consumption and subsequent excessive weight gain. Treatment started 1 week after the surgery: this period of rest allowed the rats to recover from the stress associated with the surgery. In addition, after surgery, rats were administered Diclofenac sodium injection (20 mg/Kg body weight) to reduce the pain associated with the surgery. Rats were weighed and examined daily. Blood and urine samples were collected at baseline, during, and at the end of treatment for measurement of various BTMs and other analytes. […] Blood and urine samples were collected from all experimental groups to measure biochemical analytes and BTMs at baseline and 4, 8, and 12 weeks of treatment.

[4] = tested on: ovariectomized (OVX) rats; experiment: OVX rat study: in vivo DXA densitometry of lumbar spine and humerus; design: species or system Wistar rats; details: 12 weeks, versus OVX control
Procedure: A total of 264 Wistar female rats, ˜6 months old, were supplied by the Animal House at King Fahd Medical Research Center (KFMRC), KAU. Rats were housed in individual cages and maintained at 22° C. with a 12-h light/dark cycle. During the study period, rats were given standard rodent chow diet ad libitum (commercial rat cubes containing approximately 18% protein, 3% fat, 77% carbohydrate, and 2% of an inorganic-salt mixture with a vitamin supplement by weight, supplied by Grain Silos and Flour Mills Organization, Jeddah, Saudi Arabia) and water until the onset of intervention. Prior to surgery, rats were anesthetized with ketamine [(10% ketamine hydrochloride (80 mg/kg body weight), Cayman Chemical, Michigan, USA] and xylazine [(2% xylazine hydrochloride, 10 mg/kg body weight), Sigma-Aldrich Co., St. Louis, USA]. A single longitudinal skin incision was made on the dorsal midline at the level of the kidneys and both ovaries were ligated and removed to produce an ovariectomy in all OVX group animals. A SHAM-operated group, acting as a negative control for the effect of ovariectomy on bone parameters, underwent bilateral laparotomy, during which the ovaries were exposed but remained intact. […] Peripheral Quantitative CT (pQCT) scans were made of the proximal tibia metaphysis and the diaphysis. […]

[5] = tested on: ovariectomized (OVX) rats; experiment: OVX rat study: biochemical bone turnover markers; format: in vivo, Wistar rats
Procedure: as §1, with “In addition, after surgery, rats were administered Diclofenac sodium injection (20 mg/Kg body weight) to reduce the pain associated with the surgery. Rats were weighed and examined daily. Blood and urine samples were collected at baseline, during, and at the end of treatment for measurement of various BTMs and other analytes. In vivo dual energy x-ray absorptiometry (DXA) measurements were made for the bone mineral content (BMC) and BMD of the whole body, lumbar spine (L1-L4), and the right humerus, together with body composition at 12 weeks of treatment. One day following the post-test DXA assessments (at 12 weeks, 16 rats in each group), animals were euthanized by decapitation and right and left femurs were extracted for further biomechanical and histomorphometric analyses. Blood and urine samples were collected from all experimental groups to measure biochemical analytes and BTMs at baseline and 4, 8, and 12 weeks of treatment.” left out, “diaphysis.” for “diaphysis. In vivo micro-computed tomographic (μCT) scans of the proximal tibia were obtained during the treatment period to monitor changes in bone mass and microarchitecture.”

SMILES: CC(C)=CCC/C(C)=C/C=C/C(C)=C/C=C/C(C)=C/C=C/C=C(C)/C=C/C=C(C)/C=C/C=C(\C)CCC=C(C)C [lycopene]
- Liver lycopene levels versus 15 mg/kg per day group ([1]; 30 and 45 mg/kg body weight per day groups): significantly higher
- concentration at 12 weeks ([1]; female, Wistar, rat, serum, 45 mg/kg/day, OVX rats, at 12 weeks, 45 mg/kg body weight per day oral, read-out: Serum lycopene levels): 71.5 ± 4.65 nM
- lycopene in serum and livers ([1]; rats treated with lycopene, dose-dependent fashion): detected
- decrease in fat mass (body composition by DXA) ([2]; OVX rats, first value (presumably 30 mg/kg/day)): 8.9%
- decrease in fat mass (body composition by DXA) ([2]; OVX rats, second value (presumably 45 mg/kg/day)): 16.4%
- final body weight, body weight gain, or food intake ([2]; OVX rats, lycopene 15, 30, 45 mg/kg/day oral): did not significantly influence
- uterine weight compared to OVX alone ([2]; OVX rats, lycopene 30 and 45 mg/kg body weight per day): significantly increased
- OVX-induced body weight gain and fat accumulation ([2]; OVX rats, lycopene treatment): prevented
- degeneration or hypertrophy of internal organs, including muscle and bone ([2]; lycopene-treated OVX rats): No degeneration or hypertrophy
- plasma GPx, CAT and SOD activities ([3]; after lycopene treatment): increased
- increase in plasma GPx activity compared to the OVX control ([3]; lycopene 15-45 mg/kg/day, P<0.001): 30.6-57.2%
- urinary 8-OHdG levels ([3]; lycopene, dose-dependent manner, P<0.001): significantly decreased
- OVX-induced bone loss (BMC and BMD, lumbar spine and humerus, DXA) [4]: significantly prevented
- s-CTX and u-DPD levels compared to OVX control ([5]; lycopene 30 and 45 mg/kg per day, P<0.001): significantly decreased
- s-OC and s-PINP levels compared with OVX control ([5]; lycopene 30 or 45 mg/kg per day, weeks 8 and 12, P<0.001): significant decreases
